# Measured values from patent US20230026611A1, “ARYL HETEROCYCLIC COMPOUNDS AS Kv1.3 POTASSIUM SHAKER CHANNEL BLOCKERS” (D. E. Shaw Research, LLC, priority 2019, published 2023).
# Legend:
# Kv1.3 potassium channel = biological target: T1, Kv1.3 potassium channel (Homo sapiens, UniProt P22001); test: Kv1.3 potassium channel blocker activity, automated whole-cell patch clamp (Patchliner) in CHO-K1 cells stably expressing Kv1.3; type: cell-based; details: CHO-K1 cells stably expressing Kv1.3; patch clamp, current inhibition; read-out: Kv1.3 IC50
# T1 construct: expressed in transfected cells
# T1 sequence (P22001 whole entry): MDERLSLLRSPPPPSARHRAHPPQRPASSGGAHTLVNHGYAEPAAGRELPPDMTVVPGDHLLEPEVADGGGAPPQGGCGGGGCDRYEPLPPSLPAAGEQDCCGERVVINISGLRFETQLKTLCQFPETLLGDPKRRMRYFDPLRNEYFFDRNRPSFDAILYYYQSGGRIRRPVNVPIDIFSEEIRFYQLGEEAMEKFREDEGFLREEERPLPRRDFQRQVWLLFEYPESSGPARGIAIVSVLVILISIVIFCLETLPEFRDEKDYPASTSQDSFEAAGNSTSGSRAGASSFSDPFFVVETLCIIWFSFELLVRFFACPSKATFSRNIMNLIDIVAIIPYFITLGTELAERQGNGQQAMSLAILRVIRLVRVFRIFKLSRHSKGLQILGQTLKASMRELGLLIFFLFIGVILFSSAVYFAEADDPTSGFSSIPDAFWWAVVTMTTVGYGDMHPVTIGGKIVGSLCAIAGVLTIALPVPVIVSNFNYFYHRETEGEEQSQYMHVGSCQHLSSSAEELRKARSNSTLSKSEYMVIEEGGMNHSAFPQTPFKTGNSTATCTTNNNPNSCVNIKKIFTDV
# Description: Example 82. Evaluation of Kv1.3 potassium channel blocker activities
# This assay is used to evaluate the disclosed compounds' activities as Kv1.3 potassium channel blockers.
# CHO-K1 cells stably expressing Kv1.3 were grown in DMEM containing 10% heat-inactivated FBS, 1 mM sodium pyruvate, 2 mM L-glutamine, and G418 (500 μg/ml).
# All compounds were dissolved in DMSO at 30 mM.
# The currents were evoked by applying 100 ms depolarizing pulses from −90 mV (holding potential) to +40 mV were applied with 0.1 Hz frequency. […] 10-second breaks were used between pulse trains (see Table A below).
# Data were sampled at 10 kHz without filtering. Passive leak currents were subtracted online using a P/4 procedure (HEKA Elektronik Dr. Schulze GmbH). […] Total compound incubation time before the next pulse train was not longer than 10 seconds. Peak current inhibition was observed during compound equilibration.
# hERG channel = hERG channel (Homo sapiens, UniProt Q12809); test: hERG electrophysiology, automated whole-cell patch clamp (Patchliner) in CHO-K1 cells stably expressing hERG
# Chain of hERG channel (Q12809 whole entry): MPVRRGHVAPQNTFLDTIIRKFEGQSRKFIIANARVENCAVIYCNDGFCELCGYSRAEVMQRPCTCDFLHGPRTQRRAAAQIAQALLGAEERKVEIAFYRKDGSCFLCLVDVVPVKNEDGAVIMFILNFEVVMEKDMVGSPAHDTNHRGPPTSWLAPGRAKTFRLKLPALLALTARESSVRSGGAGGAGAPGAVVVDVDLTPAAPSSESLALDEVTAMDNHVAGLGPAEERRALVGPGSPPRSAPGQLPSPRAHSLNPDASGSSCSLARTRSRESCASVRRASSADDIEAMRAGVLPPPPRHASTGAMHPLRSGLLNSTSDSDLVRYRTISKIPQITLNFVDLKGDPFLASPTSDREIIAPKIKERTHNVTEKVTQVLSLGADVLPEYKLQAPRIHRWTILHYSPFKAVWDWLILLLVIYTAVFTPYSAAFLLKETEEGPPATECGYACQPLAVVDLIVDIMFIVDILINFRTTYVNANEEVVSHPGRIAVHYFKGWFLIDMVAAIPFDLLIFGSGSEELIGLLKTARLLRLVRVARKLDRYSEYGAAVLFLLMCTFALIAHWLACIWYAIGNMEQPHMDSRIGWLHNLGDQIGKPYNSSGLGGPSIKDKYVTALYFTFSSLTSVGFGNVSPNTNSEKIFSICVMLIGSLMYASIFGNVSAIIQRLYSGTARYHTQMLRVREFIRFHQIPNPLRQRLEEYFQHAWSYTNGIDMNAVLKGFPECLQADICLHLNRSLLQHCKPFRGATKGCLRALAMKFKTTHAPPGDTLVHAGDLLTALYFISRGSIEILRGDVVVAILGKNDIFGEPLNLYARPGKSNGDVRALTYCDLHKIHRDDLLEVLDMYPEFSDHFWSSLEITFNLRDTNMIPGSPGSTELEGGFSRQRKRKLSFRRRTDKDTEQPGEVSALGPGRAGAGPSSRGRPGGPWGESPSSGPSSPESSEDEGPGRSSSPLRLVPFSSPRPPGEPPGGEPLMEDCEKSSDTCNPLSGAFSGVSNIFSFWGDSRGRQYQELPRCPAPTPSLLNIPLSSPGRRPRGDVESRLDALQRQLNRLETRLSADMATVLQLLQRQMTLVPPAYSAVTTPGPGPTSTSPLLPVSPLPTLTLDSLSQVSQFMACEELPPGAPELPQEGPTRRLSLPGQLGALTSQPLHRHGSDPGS
# Description: Evaluation of hERG Activities
# This assay is used to evaluate the disclosed compounds's inhibition activities against the hERG channel.
# CHO-K1 cells stably expressing hERG were grown in Ham's F-12 Medium with glutamine containing 10% heat-inactivated FBS, 1% penicillin/streptomycin, hygromycin (100 μg/ml) and G418 (100 μg/ml). Cells were grown in culture flasks at 37° C. in a 5% CO2-humidified incubator.
# The cells were bathed in an extracellular solution containing 140 mM NaCl, 4 mM KCl, 2 mM CaCl2), 1 mM MgCl2, 5 mM Glucose, 10 mM HEPES; pH adjusted to 7.4 with NaOH; 295-305 mOsm. The internal solution contained 50 mM KCl, 10 mM NaCl, 60 mM KF, 20 mM EGTA, 10 mM HEPES; pH adjusted to 7.2 with KOH; 285 mOsm. All compounds were dissolved in DMSO at 30 mM. Compound stock solutions were freshly diluted with external solution to concentrations of 30 nM, 100 nM, 300 nM, 1 μM, 3 μM, 10 μM, 30 μM and 100 μM. The highest content of DMSO (0.3%) was present in 100 μM.
# The voltage protocol (see Table B) was designed to simulate voltage changes during a cardiac action potential with a 300 ms depolarization to +20 mV (analogous to the plateau phase of the cardiac action potential), a repolarization for 300 ms to −50 mV (inducing a tail current) and a final step to the holding potential of −80 mV. The pulse frequency was 0.3 Hz. Control (compound-free) and compound pulse trains for each compound concentration applied contained 70 pulses.
# Whole-cell current recordings and compound application were enabled by means of an automated patch clamp platform Patchliner (Nanion). EPC 10 patch clamp amplifier (HEKA) along with Patchmaster software (HEKA Elektronik Dr. Schulze GmbH) was used for data acquisition. Data were sampled at 10 kHz without filtering. Increasing compound concentrations were applied consecutively to the same cell without washouts in between.
# AUC and PEAK values were obtained with Patchmaster (HEKA Elektronik Dr. Schulze GmbH). To determine IC50 the last single pulse in the pulse train corresponding to a given compound concentration was used. Obtained AUC and PEAK values in the presence of compound were normalized to control values in the absence of compound. Using Origin (OridinLab), IC50 was derived from data fit to Hill equation: Icompound/control=(100−A)/(1+([compound]/IC50)nH)+A, where IC50 is the concentration at which current inhibition is half-maximal, [compound] is the applied compound concentration, A is the fraction of current that is not blocked and nH is the Hill coefficient.
SMILES,IC50 (Kv1.3 potassium channel),IC50 (hERG channel)
"OCC1CC(c2cc(Cl)c(Cl)cc2O)CCN1 (stereo not drawn) [Compound 27, 4,5-dichloro-2-[2-(hydroxymethyl)piperidin-4-yl]phenol]",< 10 µM,> 30 µM
"NCC1CCN(c2cc(Cl)c(Cl)cc2O)CC1 [Compound 28, 2-[4-(aminomethyl)pip-eridin-1-yl]-4,5-dichlorophenol]",< 1 µM,< 30 µM
"NCC1CN(c2cc(Cl)c(Cl)cc2O)C1 [Compound 31, 2-(3-(aminomethyl)aze-tidin-1-yl)-4,5-dichlorophenol]",< 1 µM,< 30 µM
"OCC1CC(c2cc(Cl)c(Cl)cc2O)CN1 (stereo not drawn) [Compound 36, 4,5-dichloro-2-(5-(hydroxymethyl)pyrrolidin-3-yl)phenol]",< 10 µM,< 30 µM
"Oc1cc(Cl)c(Cl)cc1C1CCCNCC1 (stereo not drawn) [Compound 39, 2-(azepan-4-yl)-4,5-dichlorophenol]",< 1 µM,< 30 µM
"Oc1cc(Cl)c(Cl)cc1C1CCCCNC1 (stereo not drawn) [Compound 40, 2-(azepan-3-yl)-4,5-dichlorophenol]",< 10 µM,< 30 µM
"Oc1cc(Cl)c(Cl)cc1C1CCNC(C2CC2)C1 (stereo not drawn) [Compound 43, 4,5-dichloro-2-(2-cyclopropylpiperidin-4-yl)phenol]",< 1 µM,< 30 µM
"Oc1cc(Cl)c(Cl)c(Cl)c1C1CCNCC1 [Compound 44, 3,4,5-trichloro-2-(piperidin-4-yl)phenol]",< 1 µM,< 30 µM
"Oc1c(C2CCNCC2)cc(Cl)c(Cl)c1Cl [Compound 54, 2,3,4-trichloro-6-(piperidin-4-yl)phenol]",< 10 µM,< 30 µM
"Oc1ccc(Cl)c(Cl)c1C1CCNCC1 [Compound 55, 3,4-dichloro-2-(piperidin-4-yl)phenol]",< 1 µM,< 30 µM
"Oc1cc(Cl)cc(Cl)c1C1CCNCC1 [Compound 57, 3,5-dichloro-2-(piperidin-4-yl)phenol]",< 1 µM,< 30 µM
"NC(=O)N1CCC(c2c(O)cc(Cl)c(Cl)c2Cl)CC1 [Compound 60, 4-(2,3,4-trichloro-6-hydroxyphenyl)piperidine-1-carboxamide]",< 1 µM,< 30 µM
"O=C([C@H]1CCNC1)N1CCC(c2c(O)cc(Cl)c(Cl)c2Cl)CC1 [Compound 91, 3,4,5-trichloro-2-[1-[(3S)-pyrrolidine-3-carbonyl]piperidin-4-yl]phenol]",< 1 µM,< 30 µM
"O=C(CO)N1CCC(c2c(O)cc(Cl)c(Cl)c2Cl)CC1 [Compound 93, 2-hydroxy-1-[4-(2,3,4-trichloro-6-hydroxyphenyl)piperidin-1-yl]ethan-1-one]",< 1 µM,< 30 µM
"NCC(=O)N1CCC(c2c(O)cc(Cl)c(Cl)c2Cl)CC1 [Compound 98, 2-amino-1-[4-(2,3,4-trichloro-6-hydroxyphenyl)piperidin-1-yl]ethan-1-one]",< 1 µM,< 30 µM

# The next lines start with results.
IC50 (Kv1.3 potassium channel),SMILES,IC50 (hERG channel)
< 1 µM,"NC(=O)C1CC(c2c(O)cc(Cl)c(Cl)c2Cl)CCN1 (stereo not drawn) [Compound 61, 4-(2,3,4-trichloro-6-hydroxyphenyl)piperidine-2-carboxamide]",< 30 µM
< 1 µM,"CNC(=O)C1CC(c2c(O)ccc(Cl)c2Cl)CCN1 (stereo not drawn) [Compound 72, 4-(2,3-dichloro-6-hydroxyphenyl)-N-methylpiperidine-2-carboxamide]",> 30 µM
< 1 µM,"CC(=O)NCC1CC(c2c(O)ccc(Cl)c2Cl)CCN1 (stereo not drawn) [Compound 79, N-[[4-(2,3-dichloro-6-hydroxyphenyl)piperidin-2-yl]methyl]acetamide]",> 30 µM
< 1 µM,"O=S(=O)(NCC1CC(c2c(O)ccc(Cl)c2Cl)CCN1)c1ccccc1 [Compound 94, N-(2R,4S)-rel-[[4-(2,3-dichloro-6-hydroxyphenyl)piperidin-2-yl]methyl]benzenesulfonamide]",< 30 µM
< 1 µM,"Nc1nnc(C2CC(c3c(O)ccc(Cl)c3Cl)CCN2)o1 [Compound 99, (2R,4S)-rel-2-(2-(5-amino-1,3,4-oxadiazol-2-yl)piperidin-4-yl)-3,4-dichlorophenol]",> 30 µM
< 1 µM,"CS(=O)(=O)NCC1CC(c2c(O)ccc(Cl)c2Cl)CCN1 [Compound 100, (2R,4S)-rel-N-[[4-(2,3-dichloro-6-hydroxyphenyl)piperidin-2-yl]methyl]methanesulfonamide]",> 30 µM
< 1 µM,"NC(=O)CC1CC(c2c(O)ccc(Cl)c2Cl)CCN1 [Compound 101, 2-[(2R,4S)-rel-4-(2,3-dichloro-6-hydroxyphenyl)piperidin-2-yl]acetamide]",> 30 µM
< 1 µM,"NC(=O)NCC1CC(c2c(O)ccc(Cl)c2Cl)CCN1 [Compound 102, (2R,4S)-rel-[4-(2,3-dichloro-6-hydroxyphenyl)piperidin-2-yl]methylurea]",> 30 µM
< 1 µM,"O=C(NCC1CC(c2c(O)ccc(Cl)c2Cl)CCN1)C1COC1 [Compound 104, (2R,4S)-rel-N-[[4-(2,3-dichloro-6-hydroxyphenyl)piperidin-2-yl]methyl]oxetane-3-carboxamide]",> 30 µM
< 1 µM,"O=C(NCC1CC(c2c(O)ccc(Cl)c2Cl)CCN1)C1CC1 [Compound 106, (2R,4S)-rel-N-[[4-(2,3-dichloro-6-hydroxyphenyl)piperidin-2-yl]methyl]cyclopropane carboxamide]",> 30 µM
< 1 µM,"O=S1(=O)CCCN1CC1CC(c2c(O)ccc(Cl)c2Cl)CCN1 (stereo not drawn) [Compound 112, 2-[[4-(2,3-dichloro-6-hydroxyphenyl)piperidin-2-yl]methyl]-1,2-thiazolidine-1,1-dione]",< 30 µM
< 1 µM,"Oc1ccc(Cl)c(Cl)c1C1CCNC(c2cn[nH]c2)C1 (stereo not drawn) [Compound 116, 3,4-dichloro-2-[2-(1H-pyrazol-4-yl)piperidin-4-yl]phenol]",> 30 µM
< 10 µM,"O=C(NC1CNC1)C1CCC(c2c(O)ccc(Cl)c2Cl)NC1 (stereo not drawn) [Compound 125, N-(azetidin-3-yl)-6-(2,3-dichloro-6-hydroxyphenyl)piperidine-3-carboxamide]",> 100 µM
< 10 µM,"O=C(NC1CNC1)C1CCNC(c2c(O)ccc(Cl)c2Cl)C1 (stereo not drawn) [Compound 126, N-(azetidin-3-yl)-2-(2,3-dichloro-6-hydroxyphenyl)piperidine-4-carboxamide]",> 30 µM
< 10 µM,"O=C(NC1CNC1)C1CCCC(c2c(O)ccc(Cl)c2Cl)N1 (stereo not drawn) [Compound 127, N-(azetidin-3-yl)-6-(2,3-dichloro-6-hydroxyphenyl)piperidine-2-carboxamide]",> 30 µM
